{"source": "paper PMC7940609", "about": "“Hyperproduction of 3-hydroxypropionate by Halomonas bluephagenesis” (Nature Communications, 2021)", "molecules": {"B1": {"name": "AldDHb (Halomonas sp. TD01) (protein)", "chain": "MIYANPGDAGSVVSFEKRFGNYIGGEFVPPVNGQYFDNISPVNGQVFCEIPRSSAEDIEKALDAAHKAAPAWGKTSVQERSNILLKIADRLEQNLEMLAVAETWDNGKAVRETLNADIPLAVDHFRYFAGCLRSQEGTAADIDANTVAYHFHEPLGVVGQIIPWNFPILMAAWKLGPALAAGNCVILKPAEQTPASILKVMEVIGDLLPPGVLNVVNGFGAEAGQALATSKRIAKIAFTGSTPVGSHILKCAAENIIPSTVELGGKSPNIYFADIMNAEPTFIDKAVEGLVLAFFNQGEVCTCPSRALIQESMYDEFMAKVVERTKTIKRGNPLDTDVQVGAQASQEQFDKIMSYMDIARDEGAEFLAGGDKESLDDSINGGYYIQPTLLKGNNKMRVFQEEIFGPVVAVTTFKDEEEALAIANDTEFGLGAGVWSRDINVAFRMGRGIQAGRVWTNCYHQYPAHAAFGGYKKSGVGRETHKVALEHYQQTKNLLVSYDINPLGFF", "notes": "506 residues, C-terminal His-tag (plasmid p91), expressed in and purified from H. bluephagenesis TDΔdddA"}}, "key": {"[1]": {"target": "T1, DhaTKp (Klebsiella pneumoniae, UniProt Q7WRJ3)", "T1 construct": "gene dhaT; C-terminal His-tag (plasmid p95), expressed in and purified from H. bluephagenesis TDΔdddA", "T1 sequence (Q7WRJ3 1-387)": "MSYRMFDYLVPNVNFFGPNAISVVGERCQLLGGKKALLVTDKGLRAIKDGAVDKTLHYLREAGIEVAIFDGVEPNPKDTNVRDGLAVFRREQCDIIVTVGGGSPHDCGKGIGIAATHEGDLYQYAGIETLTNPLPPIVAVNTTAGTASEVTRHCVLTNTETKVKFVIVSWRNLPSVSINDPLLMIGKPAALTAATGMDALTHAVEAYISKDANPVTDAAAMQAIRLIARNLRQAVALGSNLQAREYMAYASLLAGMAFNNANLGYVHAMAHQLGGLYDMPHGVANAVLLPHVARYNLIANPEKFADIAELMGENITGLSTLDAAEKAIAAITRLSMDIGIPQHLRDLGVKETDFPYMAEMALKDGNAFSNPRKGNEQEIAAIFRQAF", "assay": "specific activity, NADH formation", "format": "biochemical", "settings": "150 mM 1,3-propanediol, 2 mM NAD+, 100 mM potassium carbonate pH 9.0, 30 mM ammonium sulfate, 37 °C"}, "[2]": {"target": "T2, DhaTPp (Pseudomonas putida, UniProt Q88J46)", "T2 construct": "gene dhaT; C-terminal His-tag (plasmid p92), expressed in and purified from H. bluephagenesis TDΔdddA", "T2 sequence (Q88J46 1-394)": "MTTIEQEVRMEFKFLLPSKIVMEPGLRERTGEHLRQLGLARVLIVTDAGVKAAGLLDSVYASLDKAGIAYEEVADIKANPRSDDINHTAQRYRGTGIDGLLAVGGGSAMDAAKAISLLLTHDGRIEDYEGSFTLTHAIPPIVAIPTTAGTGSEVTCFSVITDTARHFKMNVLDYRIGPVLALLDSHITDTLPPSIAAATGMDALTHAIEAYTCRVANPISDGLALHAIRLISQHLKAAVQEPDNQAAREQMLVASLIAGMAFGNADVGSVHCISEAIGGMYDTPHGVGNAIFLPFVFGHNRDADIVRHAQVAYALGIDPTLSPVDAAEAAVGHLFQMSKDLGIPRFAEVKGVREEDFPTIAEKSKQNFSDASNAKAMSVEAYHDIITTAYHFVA", "assay": "specific activity, NADH formation", "format": "biochemical", "settings": "150 mM 1,3-propanediol, 2 mM NAD+, 100 mM potassium carbonate pH 9.0, 30 mM ammonium sulfate, 37 °C"}, "[3]": {"target": "T3, AldH (Escherichia coli, UniProt P23883)", "T3 construct": "gene puuC; N-terminal His-tag (plasmid p99), expressed in and purified from H. bluephagenesis TDΔdddA", "T3 sequence (P23883 1-495)": "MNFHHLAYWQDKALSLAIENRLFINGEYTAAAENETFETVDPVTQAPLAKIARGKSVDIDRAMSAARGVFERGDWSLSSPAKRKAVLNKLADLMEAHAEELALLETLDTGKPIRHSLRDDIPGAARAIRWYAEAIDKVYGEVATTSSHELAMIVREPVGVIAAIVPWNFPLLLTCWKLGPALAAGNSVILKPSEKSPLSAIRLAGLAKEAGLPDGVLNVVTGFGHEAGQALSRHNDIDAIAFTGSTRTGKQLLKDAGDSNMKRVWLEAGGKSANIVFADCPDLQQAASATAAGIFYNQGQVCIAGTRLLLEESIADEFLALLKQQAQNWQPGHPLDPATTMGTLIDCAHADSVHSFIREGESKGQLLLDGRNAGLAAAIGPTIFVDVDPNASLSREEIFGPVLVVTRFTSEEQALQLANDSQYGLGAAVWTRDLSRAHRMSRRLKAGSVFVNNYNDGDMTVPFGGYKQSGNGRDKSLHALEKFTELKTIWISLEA", "assay": "specific activity, NADH formation", "format": "biochemical", "settings": "2.0 mM 3HPA, 2.0 mM NAD+, 100 mM potassium phosphate pH 8.0, 1 mM DTT, 37 °C"}, "[4]": {"target": "T4, AldDPp (Pseudomonas putida, UniProt Q88QE9)", "T4 construct": "gene aldB-I; N-terminal His-tag (plasmid p98), expressed in and purified from H. bluephagenesis TDΔdddA", "T4 sequence (Q88QE9 1-506)": "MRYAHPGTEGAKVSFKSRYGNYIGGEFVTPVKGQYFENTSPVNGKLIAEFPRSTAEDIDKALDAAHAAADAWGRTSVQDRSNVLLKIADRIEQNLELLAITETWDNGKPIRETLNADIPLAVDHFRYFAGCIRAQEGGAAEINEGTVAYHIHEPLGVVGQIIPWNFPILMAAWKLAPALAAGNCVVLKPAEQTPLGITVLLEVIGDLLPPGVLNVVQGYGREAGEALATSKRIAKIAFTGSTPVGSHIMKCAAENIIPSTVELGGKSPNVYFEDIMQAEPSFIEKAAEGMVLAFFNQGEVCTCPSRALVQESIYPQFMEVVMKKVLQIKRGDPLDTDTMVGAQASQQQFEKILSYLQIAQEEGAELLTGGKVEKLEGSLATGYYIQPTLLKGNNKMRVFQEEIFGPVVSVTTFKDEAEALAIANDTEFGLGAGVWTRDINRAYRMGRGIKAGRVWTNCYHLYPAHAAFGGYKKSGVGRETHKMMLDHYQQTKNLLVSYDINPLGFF", "assay": "specific activity, NADH formation", "format": "biochemical", "settings": "2.0 mM 3HPA, 2.0 mM NAD+, 100 mM potassium phosphate pH 8.0, 1 mM DTT, 37 °C"}, "[5]": {"target": "T5, PuuC (Klebsiella pneumoniae, UniProt A0A378BL98)", "T5 construct": "N-terminal His-tag (plasmid p100), expressed in and purified from H. bluephagenesis TDΔdddA", "T5 sequence (A0A378BL98 1-495)": "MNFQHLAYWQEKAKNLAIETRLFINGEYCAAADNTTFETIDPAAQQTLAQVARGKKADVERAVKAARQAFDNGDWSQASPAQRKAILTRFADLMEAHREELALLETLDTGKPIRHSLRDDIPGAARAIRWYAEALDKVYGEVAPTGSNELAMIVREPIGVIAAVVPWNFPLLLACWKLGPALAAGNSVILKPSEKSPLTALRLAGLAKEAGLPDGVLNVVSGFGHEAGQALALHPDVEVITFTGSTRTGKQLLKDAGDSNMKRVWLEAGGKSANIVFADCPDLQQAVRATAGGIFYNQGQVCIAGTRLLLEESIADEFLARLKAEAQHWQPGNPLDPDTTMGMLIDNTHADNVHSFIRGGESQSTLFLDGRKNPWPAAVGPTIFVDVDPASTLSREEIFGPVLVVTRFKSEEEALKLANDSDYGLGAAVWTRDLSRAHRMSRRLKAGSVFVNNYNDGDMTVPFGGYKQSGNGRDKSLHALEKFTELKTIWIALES", "assay": "specific activity, NADH formation", "format": "biochemical", "settings": "2.0 mM 3HPA, 2.0 mM NAD+, 100 mM potassium phosphate pH 8.0, 1 mM DTT, 37 °C"}, "[6]": {"substrate": "O=CCCO", "assay": "purified protein", "format": "biochemical, Halomonas sp. TD01", "settings": "2 mM NAD+, 50 mM potassium phosphate pH 8.0, 1.0 mM DTT, 37 °C"}}, "data": [{"molecule": "OCCCO", "note": "[1,3-propanediol]", "values": [{"measurement": "specific activity, NADH formation", "setting": "[1]", "value": "higher than the alcohol dehydrogenase of P. putida DhaTPp and K. pneumoniae DhaTKp"}, {"measurement": "specific activity, NADH formation", "setting": "[2]", "value": "higher than the alcohol dehydrogenase of P. putida DhaTPp and K. pneumoniae DhaTKp"}]}, {"molecule": "O=CCCO", "note": "[3HPA]", "values": [{"measurement": "specific activity, NADH formation", "setting": "[3]", "value": "four different aldehyde dehydrogenases (AldDHb, AldDPp, AldH, and PuuC) were analyzed"}, {"measurement": "specific activity, NADH formation", "setting": "[4]", "value": "four different aldehyde dehydrogenases (AldDHb, AldDPp, AldH, and PuuC) were analyzed"}, {"measurement": "specific activity, NADH formation", "setting": "[5]", "value": "four different aldehyde dehydrogenases (AldDHb, AldDPp, AldH, and PuuC) were analyzed"}]}, {"molecule": "B1", "values": [{"measurement": "Km", "setting": "[6]", "value": "50 ± 2", "unit": "µM"}, {"measurement": "kcat", "setting": "[6]", "value": "3.38 ± 0.09", "unit": "s⁻¹"}, {"measurement": "kcat/Km", "setting": "[6]", "value": "67400 ± 797", "unit": "M⁻¹ s⁻¹"}]}]}
